Consider ten compounds from patent US20130143800A1, “COMBINATION THERAPIES TO TREAT DIABETES” (RESEARCH DEVELOPMENT FOUNDATION, priority 2011, published 2013).

Where two headings read alike, the source gives them in different places.

Data set [1] relates to HIF1α. Description: Immunoblot of HIF1α in INS-1 cells. It counts as cell-based, rat. The procedure:
(§1) Immunoblot and immunoprecipitation: Immunoblots were performed as described (Dentin et al., 2008). For immunoprecipitations, cell lysates were incubated with primary antibody and 25 μl of a 50% slurry of protein G agarose beads for 4 hours with rotation at 4° C. Immunoprecipitates were washed with lysis buffer and denatured by boiling in 20 μl SDS sample buffer.
(§2) INS-1 insulinoma cells were cultured in RPMI 1640 (Mediatech) with 10% heat inactivated fetal bovine serum (Sigma), 2 mM glutamine (Mediatech), 1 mM sodium pyruvate (Mediatech), 100 μg/ml penicillin-streptomycin (Mediatech) and 0.05 mM β-mercaptoethanol. HEK 293T cells were cultured in DMEM (Mediatech) with 10% fetal bovine serum and 100 μg/ml penicillin-streptomycin. Forskolin (10 μM), LY294002 (50 μM), and DMOG (1 mM) were added to cells as indicated. Cells were exposed to rapamycin (50 nM) or to cycloheximide (100 μg/ml) overnight. For glucose and Exendin-4 treatments, INS-1 cells were glucose and serum starved for 1 hour, and stimulated with glucose or 2-deoxyglucose (20 mM) with or without Exendin-4 (10 nM). HEK 293T cells were transfected with polyethylenimine (PEI) and INS-1 cells with Lipofectamine2000 (Invitrogen; 11668-019). For HIF-1α translational reporter experiment, INS-1 cells were transfected with pLUXHIF1α5′UTR or pLUX control vector (generous gift of John Blenis). After 24 hours, cells were exposed to rapamycin overnight where indicated. After forskolin treatment, cells were harvested for Renilla/firefly luciferase activity. […]

Data set [2] relates to HIF1α. Description: Immunoblot of HIF1α in primary hepatocytes. It counts as cell-based. As to conditions: cultured primary hepatocytes. (Immunoblotting shows a protein as a band on a membrane.)
The subject of another data set is HIF. Description: HRE-luc reporter in primary hepatocytes. It counts as cell-based. As to conditions: cultured primary hepatocytes. An excerpt:
Plasmids expressing cDNAs for HA-HIF-1α […]/P564A (18955) were purchased from Addgene. HRE-LUC reporter construct was generously provided by Randall Johnson (UCSD).

Data set [3] concerns hypoxia-inducible factor (HIF). Description: HRE-luc reporter transient assay in INS-1 cells. It counts as cell-based, rat. The protocol: (§3) INS-1 insulinoma cells were cultured in RPMI 1640 (Mediatech) with 10% heat inactivated fetal bovine serum (Sigma), 2 mM glutamine (Mediatech), 1 mM sodium pyruvate (Mediatech), 100 μg/ml penicillin-streptomycin (Mediatech) and 0.05 mM β-mercaptoethanol. HEK 293T cells were cultured in DMEM (Mediatech) with 10% fetal bovine serum and 100 μg/ml penicillin-streptomycin. Forskolin (10 μM), LY294002 (50 μM), and DMOG (1 mM) were added to cells as indicated. Cells were exposed to rapamycin (50 nM) or to cycloheximide (100 μg/ml) overnight. For glucose and Exendin-4 treatments, INS-1 cells were glucose and serum starved for 1 hour, and stimulated with glucose or 2-deoxyglucose (20 mM) with or without Exendin-4 (10 nM). HEK 293T cells were transfected with polyethylenimine (PEI) and INS-1 cells with Lipofectamine2000 (Invitrogen; 11668-019). For HIF-1α translational reporter experiment, INS-1 cells were transfected with pLUXHIF1α5′UTR or pLUX control vector (generous gift of John Blenis). After 24 hours, cells were exposed to rapamycin overnight where indicated. After forskolin treatment, cells were harvested for Renilla/firefly luciferase activity. Normalized luciferase activities are shown.
Plasmids expressing cDNAs for HA-HIF-1α P402A/P564A (18955) were purchased from Addgene. HRE-LUC reporter construct was generously provided by Randall Johnson (UCSD).

A further data set deals with mTORC1. In words: Immunoblot of phospho-S6 in INS-1 cells. The conditions noted are these: co-incubation of mTOR inhibitor with FSK. It counts as cell-based, rat. The procedure:
as §1
as §2, with “Blenis).” for “Blenis). After 24 hours, cells were exposed to rapamycin overnight where indicated. After forskolin treatment, cells were harvested for Renilla/firefly luciferase activity.”

In the next data set the test system is INS-1 cells. In words: Cell size determination in INS-1 cells. The conditions noted are these: co-incubation with FSK. It counts as cell-based, rat. The protocol:
For cell size measurements, INS-1 cells were plated on 6 cm dishes, treated as indicated, trypsinized and resuspended in PBS. Cell diameter was measured using a particle size counter.

In a further data set the test system is INS-1 insulinoma cells. Description: Gene profiling and Q-PCR of cAMP inducible genes in INS-1 cells. It counts as cell-based, rat. The conditions noted are these: INS-1 cells exposed to FSK. The protocol: as §3
Gene profiling experiments were performed on total RNA from INS-1 cells using an Affymetrix Rat Gene Array as previously described (Zhang et al., 2005).
mRNA levels were quantified by Q-PCR analysis as previously described (Dentin, 2007). Oligonucleotides were designed to target rat gene sequences.

For data set [4] the following is noted: cited from earlier work.
The next data set has as its target human GLP-1 receptor (Homo sapiens, UniProt P43220). As to conditions: greater affinity than native GLP-1; cited from earlier work.
For data set [5] the following is noted: mildly hyperglycaemic patients with Type 2 diabetes on metformin; cited from earlier work.
Setting [6] is: plus protein synthesis inhibitor.
The mark [7] stands for this setting: prolonged exposure, particularly under high glucose (20 mM).

Sequence of human GLP-1 receptor (P43220 24-463): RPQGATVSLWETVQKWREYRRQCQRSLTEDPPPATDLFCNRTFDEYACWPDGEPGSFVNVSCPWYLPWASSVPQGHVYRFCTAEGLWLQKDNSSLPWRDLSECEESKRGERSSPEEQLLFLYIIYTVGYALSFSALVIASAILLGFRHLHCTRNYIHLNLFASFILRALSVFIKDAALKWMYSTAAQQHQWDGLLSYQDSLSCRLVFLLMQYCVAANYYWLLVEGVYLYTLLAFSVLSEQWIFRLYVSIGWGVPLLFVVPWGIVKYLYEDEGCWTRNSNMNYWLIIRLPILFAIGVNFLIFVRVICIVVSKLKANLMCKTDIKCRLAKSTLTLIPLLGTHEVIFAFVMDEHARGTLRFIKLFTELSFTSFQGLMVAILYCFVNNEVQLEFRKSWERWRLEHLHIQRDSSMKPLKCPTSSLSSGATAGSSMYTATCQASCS

Turning to `COC(=O)CNC(=O)C(=O)OC` [DMOG, Dimethyloxalyl Glycine], in the data set with HIF1α [1] (agent alone), the HIF1α protein levels entry is recorded as “increased”. Further, in the data set on HIF1α [2], the HIF1α accumulation entry was “triggered”. In addition, in the data set with HIF, the HRE-luc reporter activation result is “triggered”.

In the case of `C=C[C@@]1(C)CC(=O)[C@]2(O)[C@@]3(C)[C@@H](O)CCC(C)(C)[C@@H]3[C@H](O)[C@H](OC(C)=O)[C@@]2(C)O1` [FSK, Forskolin], the HIF1α accumulation entry in the data set with HIF1α [2] is “no effect”. For the same compound, the HRE-luc reporter activation entry in the data set on HIF is given as “no effect”.

`O=S(=O)(NCCNC/C=C/c1ccc(Br)cc1)c1cccc2cnccc12` [H89]: in data set [3] (co-incubation with inhibitor), the “induction of the HRE-luc reporter by FSK” value is given as “blocked” and the “induction of the HRE-luc reporter by IBMX” value is given as “blocked”.

Take `CC(C)Cn1c(=O)n(C)c(=O)c2[nH]cnc21` [IBMX]: the HRE-luc reporter activity result in [3] (time not stated) is “increased”.

As for `CC(C)n1nc(-c2cc3cc(O)ccc3[nH]2)c2c(N)ncnc21` [PP242], in the data set with HIF1α [1] (co-incubation of mTOR inhibitor with FSK), the “effects of FSK on HIF1α induction” value is on record as “blocked”. Also, the “effects of FSK on S6 phosphorylation” value in the data set on mTORC1 was “blocked”. In addition, the “effects of FSK on cell size” value in the data set with INS-1 cells is on record as “blocked”.

For the compound `C[C@@H]1C[C@@H]([C@H](O)CC2CC(=O)NC(=O)C2)C(=O)[C@@H](C)C1` [cycloheximide], in the data set on INS-1 insulinoma cells (setting [6]), the “expression of CREB target genes” value is on record as “enhanced” and the “expression of late phase genes like HMOX1 by FSK” value is “reduced”.

Turning to `CO[C@H]1C[C@@H]2CC[C@@H](C)[C@@](O)(O2)C(=O)C(=O)N2CCCC[C@H]2C(=O)O[C@H]([C@H](C)C[C@@H]2CC[C@@H](O)[C@H](OC)C2)CC(=O)[C@H](C)/C=C(\C)[C@@H](O)[C@@H](OC)C(=O)[C@H](C)C[C@H](C)/C=C/C=C/C=C/1C` [rapamycin], the “induction of CREB target genes such as NR4A2” value in the data set on INS-1 insulinoma cells (plus rapamycin) is reported as “no effect”.

As for Albiglutide, the half-life result in data set [4] (after administration) is “four to seven”.

In the case of Exendin-4: GLP-1 agonist, in data set [3] (setting [7]), the HRE-luc reporter activity result is given as “increased”. Moreover, in the data set with HIF1α [1] (setting [7]), the HIF1α protein accumulation result is “increased”.

Turning to Lixisenatide, the half-life in data set [4] (in vivo) was 2.5 to 4 h. On human GLP-1 receptor, the “affinity for the human GLP-1 receptor compared with native GLP-1” value is “approximately 4 fold”. Also, the glycaemic control result in data set [5] is recorded as “significantly improve”.

As a reminder, the half-life is how long it takes for the measured level to halve.
